One test concerns the target T1, BTK-WT (Homo sapiens, UniProt Q06187).
T1 construct: purified from insect cells as a full-length construct containing an N-terminal 6X-His tag; His6 (N); made in house; host or cells: insect cells (baculovirus Sf21 in Method B)
In words: Btk in vitro inhibitory activity (one of Method A TR-FRET, Method B electrophoretic mobility shift, Method C radiometric filter binding). Type of test: biochemical. The note with it: read-out: IC50 BTK-WT. On the procedure:
Btk kinase activity is determined using a time-resolved fluorescence resonance energy transfer (TR-FRET) methodology. Measurements are performed in a reaction volume of 50 μL using 96-well assay plates. […] The reaction is quenched by the addition of 1.2 equivalents of EDTA (relative to divalent cation) in 25 μL of 1× Lance buffer (Perkin-Elmer). […] The TR-FRET signal is measured on a multimode plate reader with an excitation wavelength (λEx) of 330 nm and detection wavelengths (λEm) of 615 and 665 nm. Activity is determined by the ratio of the fluorescence at 665 nm to that at 615 nm. For each compound, enzyme activity is measured at various concentrations of compound. Negative control reactions are performed in the absence of inhibitor in replicates of six, and two no-enzyme controls are used to determine baseline fluorescence levels. Inhibition constants, Ki(app), were obtained using the program BatchKi(Kuzmic et al. (2000), Anal. Biochem. 286:45-50). IC50s are obtained according to the equation:
IC50={Ki(app)/(1+[ATP]/Km^ATP)}+[E]total/2;
Kinase activity is measured in vitro using electrophoretic mobility shift assay. The kinase reactions are assembled in a total volume of 25 μL in 384 well plates. […] The reaction is incubated for one hour and is quenched by the addition of 45 μL of termination buffer (100 mM HEPES, pH7.5, 0.01% Triton X-100, 30 mM EDTA). The terminated reactions are analyzed using 12 channel LabChip® 3000 microfluidic detection instrument (Caliper Life Sciences). […] Change in the relative fluorescence intensity of the substrate and product peaks is the parameter measured, reflecting enzyme activity. In the presence of an inhibitor, the ratio between product and substrate is altered: the signal of the product decreases, while the signal of the substrate increases.
Activity in each sample is determined as the product to sum ratio (PSR): P/(S+P), where P is the peak height of the product peptide and S is the peak height of the substrate peptide. For each compound, enzyme activity is measured at various concentrations (12 concentrations of compound spaced by 3× dilution intervals). Negative control samples (0%-inhibition in the absence of inhibitor) and positive control samples (100%-inhibition, in the presence of 20 mM EDTA) are assembled in replicates of four and are used to calculate %-inhibition values for each inhibitor at each concentration. Percent inhibition (Pinh) is determined using following equation:
Pinh=(PSR0%-PSRinh)/(PSR0%−PSR100%)*100, where PSRinh is the product sum ratio in the presence of inhibitor, PSR0% is the average product sum ration in the absence of inhibitor and PSR100% is the average product sum ratio in 100%-inhibition control samples;
The IC50 values of inhibitors are determined by 4 parameter sigmoidal dose-response model fitting of the inhibition curves (Pinh versus inhibitor concentration) using XLfit 4 software.
Human Btk kinase (Genbank accession # NP_000052) was purified from insect cells as a full-length construct containing an N-terminal 6X-His tag. Btk kinase activity was determined using a radiometric filter binding assay. Measurements are performed in a low μL reaction volume 384-well assay plates. […] IC50 values and curve fits were obtained using Prism (GraphPad Software).

The target in another test is T2, ITK (Homo sapiens, UniProt Q08881).
T2 sequence (Q08881 1-620): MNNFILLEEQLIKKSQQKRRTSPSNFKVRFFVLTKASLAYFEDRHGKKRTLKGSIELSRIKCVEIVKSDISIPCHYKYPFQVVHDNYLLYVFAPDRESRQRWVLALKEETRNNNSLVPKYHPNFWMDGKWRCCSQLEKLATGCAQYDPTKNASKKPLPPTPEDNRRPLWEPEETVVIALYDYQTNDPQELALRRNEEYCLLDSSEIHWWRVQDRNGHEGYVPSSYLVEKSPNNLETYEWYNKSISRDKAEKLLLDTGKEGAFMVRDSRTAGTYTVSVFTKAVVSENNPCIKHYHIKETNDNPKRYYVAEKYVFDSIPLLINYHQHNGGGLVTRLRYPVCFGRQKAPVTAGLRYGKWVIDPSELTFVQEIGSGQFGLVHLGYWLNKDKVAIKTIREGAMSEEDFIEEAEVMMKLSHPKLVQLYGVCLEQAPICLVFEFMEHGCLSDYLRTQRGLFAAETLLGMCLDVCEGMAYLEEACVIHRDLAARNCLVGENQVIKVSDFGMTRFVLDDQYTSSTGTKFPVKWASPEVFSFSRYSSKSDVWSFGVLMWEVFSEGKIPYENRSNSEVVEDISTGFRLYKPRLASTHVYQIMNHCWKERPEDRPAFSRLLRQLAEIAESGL
In words: Inhibition of a panel of kinases, in vitro HotSpot kinase assay: ITK. Type of test: biochemical. The protocol:
The degree of inhibition of a panel of kinases is determined using the in vitro HotSpot kinase assay (purified enzymes, ^33P-ATP, an appropriate substrate and 1 μM ATP).

The mark [1] stands for this setting: Table 15, C compounds, 1 μM ATP.

Like-named read-outs stand apart in the source and are kept apart here. Where only a bound is given, the exact number is not on record here.

T1 sequence (Q06187 whole entry): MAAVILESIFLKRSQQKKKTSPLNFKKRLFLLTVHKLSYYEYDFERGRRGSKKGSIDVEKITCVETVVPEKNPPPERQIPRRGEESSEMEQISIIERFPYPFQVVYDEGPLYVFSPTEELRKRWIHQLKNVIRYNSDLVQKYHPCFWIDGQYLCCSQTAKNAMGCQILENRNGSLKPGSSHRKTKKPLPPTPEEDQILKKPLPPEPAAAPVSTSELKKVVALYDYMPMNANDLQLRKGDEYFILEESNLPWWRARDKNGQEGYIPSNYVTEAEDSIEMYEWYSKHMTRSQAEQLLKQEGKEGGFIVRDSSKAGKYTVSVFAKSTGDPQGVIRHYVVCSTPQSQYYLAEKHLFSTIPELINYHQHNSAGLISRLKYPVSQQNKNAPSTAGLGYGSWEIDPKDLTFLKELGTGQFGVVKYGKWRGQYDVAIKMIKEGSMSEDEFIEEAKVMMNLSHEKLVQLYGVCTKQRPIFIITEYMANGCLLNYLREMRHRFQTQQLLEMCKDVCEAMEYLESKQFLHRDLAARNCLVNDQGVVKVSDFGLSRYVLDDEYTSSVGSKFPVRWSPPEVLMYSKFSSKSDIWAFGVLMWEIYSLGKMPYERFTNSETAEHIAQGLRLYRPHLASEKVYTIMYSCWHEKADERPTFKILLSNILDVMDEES

The term IC50 denotes the concentration that inhibits the measured activity by half. As for `C=CC(=O)N1CCC[C@@H](Nc2nnc(C(N)=O)c(Nc3ccc(C4CC4)cc3)n2)C1` [Example C-47, (R)-3-(1-acryloylpiperidin-3-ylamino)-5-(4-cyclopropylphenyl-amino)-1,2,4-triazine-6-carboxamide], the half-inhibitory concentration (IC50) at BTK-WT (Table 15, C compounds) was not above 10 nM; against ITK (setting [1]) it was 10 to 100 nM.
For `C=CC(=O)N1CCC[C@@H](Nc2nnc(C(N)=O)c(Nc3ccc4c(c3)CCC(=O)N4C)n2)C1` [Example C-87, (R)-3-(1-acryloylpiperidin-3-ylamino)-5-(1-methyl-2-oxo-1,2,3,4-tetrahydroquinolin-6-ylamino)-1,2,4-triazine-6-carboxamide] the same measures were not above 10 nM and not above 10 nM.
The like results for `CN(c1cnc(C(N)=O)c(Nc2ccc(C3(C)CCN(C4CC4)CC3)cc2)n1)[C@@H]1CCN(C(=O)C(F)(F)F)C1` [Example C-66, (R)-3-(4-(1-cyclopropyl-4-methylpiperidin-4-yl)phenylamino)-5-(methyl(1-(2,2,2-trifluoroacetyl)pyrrolidin-3-yl)amino)pyrazine-2-carboxamide] were, in that order, not above 10 nM and not above 10 nM.
For `C=CC(=O)N1CCCC[C@@H](Nc2nnc(C(N)=O)c(Nc3ccc(C(C)C)cc3)n2)C1` [Example C-38, (R)-3-(1-acryloylazepan-3-ylamino)-5-(4-isopropylphenylamino)-1,2,4-triazine-6-carboxamide] the same measures were not above 10 nM and not above 10 nM.
Turning to `C=CC(=O)N1CCC[C@@H](Nc2nnc(C(N)=O)c(Nc3cccc(-c4nccs4)c3)n2)C1` [Example C-86, (R)-3-(1-acryloylpiperidin-3-ylamino)-5-(3-(thiazol-2-yl)phenylamino)-1,2,4-triazine-6-carboxamide], the IC50 was not above 10 nM on BTK-WT (Table 15, C compounds) and 10 to 100 nM on ITK (setting [1]).
As for `C=CC(=O)N[C@@H]1CCCC[C@@H]1Nc1nnc(C(N)=O)c(Nc2ccc(C(C)C)cc2)n1` [Example E-34, 3-((1S,2R)-2-acrylamidocyclohexyl-amino)-5-(4-isopropylphenylamino)-1,2,4-triazine-6-carboxamide], the concentration for half-maximal inhibition (IC50) at BTK-WT (E compounds, Table 17) lay in the range of 10 to 100 nM; on ITK (E compounds, Table 17) it was 100 to 1000 nM.
As to `C=CC(=O)N1CCC[C@@H](Nc2nnc(C(N)=O)c(Nc3ccc(CN[C@@H](C)C(C)(C)C)cc3)n2)C1` [Example C-73, 3-((R)-1-acryloylpiperidin-3-ylamino)-5-(4-(((S)-3,3-dimethylbutan-2-ylamino)methyl)phenyl-amino)-1,2,4-triazine-6-carboxamide], the IC50 is not above 10 nM on BTK-WT (Table 15, C compounds) and not above 10 nM against ITK (setting [1]).
Regarding `C=CC(=O)N1CCC[C@H](N(C)c2nnc(C(N)=O)c(Nc3ccc(C(C)C)cc3)n2)C1` [Example E-27, (S)-3-((1-acryloylpiperidin-3-yl)(methyl)amino)-5-(4-isopropylphenylamino)-1,2,4-triazine-6-carboxamide], the IC50 at BTK-WT (E compounds, Table 17) is not above 10 nM; on ITK (E compounds, Table 17), 10 to 100 nM.
For `CN1C(=O)CCc2cc(Nc3nc(N[C@@H]4CCCN(C(=O)OC(C)(C)C)C4)nnc3C(N)=O)ccc21` [Example E-72, (R)-tert-butyl 3-(6-carbamoyl-5-(1-methyl-2-oxo-1,2,3,4-tetrahydroquinolin-6-ylamino)-1,2,4-triazin-3-ylamino)piperidine-1-carboxylate], the IC50 at BTK-WT (E compounds, Table 17) lay within 10 to 100 nM; against ITK (E compounds, Table 17), 1000 to 10000 nM.
For the compound `C=CC(=O)N1CCC[C@@H](N(C(=O)C=C)c2nnc(C(N)=O)c(Nc3ccc(C4CC4)cc3)n2)C1` [Example C-49, (R)-3-(N-(1-acryloylpiperidin-3-yl)acrylamido)-5-(4-cyclopropylphenyl-amino)-1,2,4-triazine-6-carboxamide], the concentration for half-maximal inhibition (IC50) on BTK-WT (Table 15, C compounds) is not above 10 nM; on ITK (setting [1]) it was 1000 to 10000 nM.
As to `C=CC(=O)N1CCC[C@H](N(C)c2nnc(C(N)=O)c(Nc3ccc(C(C)C)cc3)n2)C1` [Example C-43, (S)-3-((1-acryloylpiperidin-3-yl)(methyl)amino)-5-(4-isopropylphenylamino)-1,2,4-triazine-6-carboxamide], the concentration for half-maximal inhibition (IC50) at BTK-WT (Table 15, C compounds) was not above 10 nM; on ITK (setting [1]), 10 to 100 nM.
As to `CCC(=O)N1CCC[C@@H](Nc2nnc(C(N)=O)c(Nc3ccc(C(C)(C)C)cc3)n2)C1` [Example E-35, (R)-5-(4-tert-butylphenylamino)-3-(1-propionylpiperidin-3-ylamino)-1,2,4-triazine-6-carboxamide], the IC50 was not above 10 nM on BTK-WT (E compounds, Table 17) and 100 to 1000 nM at ITK (E compounds, Table 17).
For the compound `C=CC(=O)N1CCC[C@@H](Nc2nnc(C(N)=O)c(Nc3ccc(-c4cnn(C(=O)C=C)c4)cc3)n2)C1` [Example C-74], the concentration for half-maximal inhibition (IC50) at BTK-WT (Table 15, C compounds) is not above 10 nM; on ITK (setting [1]) it was 10 to 100 nM.
Regarding `C=CC(=O)N1CCC[C@@H](Nc2nnc(C(N)=O)c(Nc3ccc(C4(C#N)CC4)cc3)n2)C1` [Example C-48, (R)-3-(1-acryloylpiperidin-3-ylamino)-5-(4-(1-cyanocyclopropyl)phenylamino)-1,2,4-triazine-6-carboxamide], the IC50 on BTK-WT (Table 15, C compounds) was not above 10 nM; at ITK (setting [1]), not above 10 nM.
In the case of `C=CC(=O)N[C@H]1CCCN(c2nnc(C(N)=O)c(Nc3ccc(C(C)C)cc3)n2)C1` [Example A-95, (S)-3-(3-acrylamido-piperidin-1-yl)-5-(4-isopropylphenylamino)-1,2,4-triazine-6-carboxamide], the IC50 at BTK-WT (Table 13, A compounds) was in the range of 10 to 100 nM; against ITK (Table 13, A compounds, 1 μM ATP), 100 to 1000 nM.
In the case of `C=CC(=O)N[C@H]1CCCC[C@H]1Nc1nnc(C(N)=O)c(Nc2ccc(C(C)C)cc2)n1` [Example E-25, 3-((1R,2S)-2-acrylamidocyclohexyl-amino)-5-(4-isopropylphenylamino)-1,2,4-triazine-6-carboxamide], the half-maximal inhibitory concentration (IC50) on BTK-WT (E compounds, Table 17) is not above 10 nM; on ITK (E compounds, Table 17), 100 to 1000 nM.
For `C=CC(=O)N1CCC[C@@H](Nc2nnc(C(N)=O)c(Nc3ccc4c(c3)CCC(=O)N4C)n2)C1` [Example E-71, (R)-3-(1-acryloylpiperidin-3-ylamino)-5-(1-methyl-2-oxo-1,2,3,4-tetrahydroquinolin-6-ylamino)-1,2,4-triazine-6-carboxamide] the same measures were not above 10 nM and not above 10 nM.
With `CN(c1cnc(C(N)=O)c(Nc2ccc(C3(C)CCN(C4CC4)CC3)cc2)n1)[C@@H]1CCN(C(=O)C(F)(F)F)C1` [Example E-105, (R)-3-(4-(1-cyclopropyl-4-methylpiperidin-4-yl)phenylamino)-5-(methyl(1-(2,2,2-trifluoroacetyl)pyrrolidin-3-yl)amino)pyrazine-2-carboxamide], the half-inhibitory concentration (IC50) at BTK-WT (E compounds, Table 17) is not above 10 nM; at ITK (E compounds, Table 17), not above 10 nM.
Regarding `C=CC(=O)N1CCCC[C@H](Nc2nnc(C(N)=O)c(Nc3ccc(C(C)C)cc3)n2)C1` [Example C-35, (S)-3-(1-acryloylazepan-3-ylamino)-5-(4-isopropylphenylamino)-1,2,4-triazine-6-carboxamide], the IC50 on BTK-WT (Table 15, C compounds) was not above 10 nM; against ITK (setting [1]), 100 to 1000 nM.

These data come from patent US20210070748A1, “INHIBITORS OF BRUTONS TYROSINE KINASE” (Pharmacyclics LLC, priority 2015, published 2021).
